Experimental data reported in patent publication US12268683B2, “Compounds and methods for synergistic activation of M channels” (THE REGENTS OF THE UNIVERSITY OF CALIFORNIA, priority 2018, dated 2025).
Entries after “also recorded” stand apart in the source; their conditions may differ. Read-outs that look alike come from different tables or passages of the source.

Assays:
KCNQ5 = KCNQ5 (Homo sapiens, UniProt Q9NR82); assay: TEVC of homomeric KCNQ5 expressed in Xenopus oocytes; format: cell-based
Excerpt: cRNA transcripts encoding human KCNA1, KCNQ1, KCNQ2, KCNQ3, KCNQ4, or KCNQ5 were generated by in vitro transcription using the T7 polymerase message machine kit (Thermo Fisher Scientific), after vector linearization, from cDNA sub-cloned into plasmids incorporating X. laevis β-globin 5′ and 3′ UTRs flanking the coding region to enhance translation and cRNA stability. cRNA was quantified by spectrophotometry. Mutant cDNAs were generated by site-directed mutagenesis using a QuikChange kit according to manufacturer's protocol (Stratagene, San Diego, Calif.) and corresponding cRNAs prepared as above. Defolliculated stage V and VI X. laevis oocytes (Ecocyte Bioscience, Austin, Tex.) were injected with Kv channel a subunit cRNAs (10 ng total per oocyte). Oocytes were incubated at 16° C. in Barth's saline solution (Ecocyte) containing penicillin and streptomycin, with daily washing, for 3-5 days prior to two-electrode voltage-clamp (TEVC) recording.
TEVC recording was performed at room temperature with an OC-725C amplifier (Warner Instruments, Hamden, Conn.) and pClamp10.2 software (Molecular Devices, Sunnyvale, Calif.) 3-5 days after cRNA injection as described in the section above. Oocytes were placed in a small-volume oocyte bath (Warner) and viewed with a dissection microscope. Chemicals were sourced from Sigma. Bath solution was (in mM): 96 NaCl, 4 KCl, 1 MgCl2, 1 CaCl2. 10 HEPES (pH 7.6). […] MTX (DMSO), sorbic acid (ethanol), and glutaconic acid (molecular grade H2O) were stored at −20° C. as 1 M stocks. Oleamide was stored as a 1 mM stock in ethanol at 4° C. Palmitic acid was conjugated with bovine serum albumin as a 1 mM stock and stored at −20° C. All compounds were diluted to working concentrations each experimental day. All compounds were introduced to the recording bath via gravity perfusion at a constant flow of 1 ml/min for 3 min prior to recording. Pipettes were of 1-2 MΩ resistance when filled with 3 M KCl. Currents were recorded in response to pulses between −80 and +40 mV at 20 mV intervals, or a single pulse to +40 mV, from a holding potential of −80 mV, to yield current-voltage relationships, current magnitude, and for quantifying activation rate. TEVC data analysis was performed with Clampfit10.2 (Molecular Devices) and Graphpad Prism software (GraphPad, San Diego, Calif., USA); values are stated as mean±SEM. Normalized tail currents were plotted versus prepulse voltage and fitted with a single Boltzmann function:
(§1) cRNA transcripts encoding human KCNQ2, KCNQ3, KCNQ4, KCNQ5 (Kv7.2-Kv7.5) were generated by in vitro transcription using the T7 polymerase mMessage mMachine kit (Thermo Fisher Scientific), after vector linearization, from cDNA sub-cloned into plasmids incorporating Xenopus laevis β-globin 5′ and 3′ UTRs flanking the coding region to enhance translation and cRNA stability. cRNA was quantified by spectrophotometry. Mutant KCNQ2 and KCNQ3 cDNAs were generated with site-directed mutagenesis using a QuikChange kit according to the manufacturer's protocol (Stratagene, San Diego, Calif.) and corresponding cRNAs prepared as above. Defolliculated stage V and VI Xenopus laevis oocytes (Ecocyte Bioscience, Austin, Tex.) were injected with KCNQ channel α subunit cRNAs (5-10 ng). The oocytes were incubated at 16° C. in Barth's saline solution (Ecocyte) containing penicillin and streptomycin, with daily washing, for 2-5 days prior to two-electrode voltage-clamp (TEVC) recording.
TEVC recording was performed at room temperature using a OC-725C amplifier (Warner Instruments, Hamden, Conn.) and pClamp8 software (Molecular Devices, Sunnyvale, Calif.) 2-5 days after cRNA injection as described in the section above. The oocytes were placed in a small-volume oocyte bath (Warner) and viewed with a dissection microscope. Unless otherwise stated, chemicals were sourced from Sigma. Bath solution was (in mM): 96 NaCl, 4 KCl, 1 MgCl2, 1 CaCl2, 10 HEPES (pH 7.6).

KCNQ2/KCNQ3-W265L = KCNQ2/KCNQ3-W265L (Homo sapiens, UniProt O43525+O43526, W265L); assay: TEVC of KCNQ2/KCNQ3-W265L channels; format: cell-based
Excerpt: as §1
TEVC recording was performed at room temperature using a OC-725C amplifier (Warner Instruments, Hamden, Conn.) and pClamp8 software (Molecular Devices, Sunnyvale, Calif.) 2-5 days after cRNA injection as described in the section above. The oocytes were placed in a small-volume oocyte bath (Warner) and viewed with a dissection microscope. Unless otherwise stated, chemicals were sourced from Sigma. Bath solution was (in mM): 96 NaCl, 4 KCl, 1 MgCl2, 1 CaCl2, 10 HEPES (pH 7.6). […] The drugs were introduced into the recording bath by gravity perfusion at a constant flow of 1 ml per minute for 3 minutes prior to recording. Pipettes were of 1-2 MΩ resistance when filled with 3 M KCl. Currents were recorded in response to pulses between −80 mV and +40 mV at 20 mV intervals, or a single pulse to +40 mV, from a holding potential of −80 mV, to yield current-voltage relationships, current magnitude, and for quantifying activation rate. Deactivation was recorded at −80 mV after a single pulse to +40 mV, from a holding potential of −80 mV. Electrophysiology data analysis was performed with Clampfit (Molecular Devices) and Graphpad Prism software (GraphPad, San Diego, Calif., USA); values are stated as mean±SD. Raw or normalized tail currents were plotted versus prepulse voltage and fitted with a single Boltzmann function:
As previously described (12), we generated cRNA transcripts encoding human KCNA1, KCNE1, KCNE2, KCNE3, KCNQ1, KCNQ2, KCNQ3, KCNQ4 or KCNQ5 by in vitro transcription using the T7 polymerase mMessage mMachine kit (Thermo Fisher Scientific), after vector linearization, from cDNA sub-cloned into plasmids incorporating Xenopus laevis β-globin 5′ and 3′ UTRs flanking the coding region to enhance translation and cRNA stability. We quantified cRNA by spectrophotometry. […]

With `CS(=O)(=O)N(CC(=O)O)c1cccc(F)c1` [3FMSG] the EC50 (KCNQ5; Example 4, read-out: EC50 of KCNQ5 activation) was 171 ± 112 nM and the “effect on KCNQ2/KCNQ3-W265L (in words)” value (KCNQ2/KCNQ3-W265L) was “dependent on KCNQ3-W265; also recorded: eliminated effects of 3FMSG”.
With `CCCCCCCCC/C=C/C=O` [(E)-2-dodecenal] the “maximal shift in ΔV0.5activation” value (KCNQ2/KCNQ3-W265L; (E)-2-dodecenal) was −9 mV and the EC50 (KCNQ2/KCNQ3-W265L; ΔV0.5activation, read-out: EC50 of (E)-2-dodecenal) was 270 ± 20 nM.
In the case of `CC(=O)c1c(O)c(C)c(O)c(Cc2c(O)c3c(c(C(=O)/C=C/c4ccccc4)c2O)OC(C)(C)C=C3)c1O` [MTX, mallotoxin], the “shift of midpoint voltage of KCNQ5 activation” value (KCNQ5; MTX 30 μM) is reported as −14 mV, the KCNQ5 current fold-increase (KCNQ5; −60 mV, 100 μM) is reported as “eight-fold” and the EC50 (KCNQ5; −60 mV, read-out: EC50 of KCNQ5 activation) is reported as 67100 nM.
In the case of `NCC1(CC(=O)O)CCCCC1` [gabapentin, reference compound], the “effect on KCNQ5 (in words)” value (KCNQ5) is reported as “activated”, the “maximal fold increase in KCNQ5 current” value (KCNQ5; −60 mV) is reported as 3 fold and the EC50 (KCNQ5; −60 mV, read-out: EC50 of KCNQ5 activation by gabapentin) is reported as 1.9 nM. The “effect on KCNQ2/KCNQ3-W265L (in words)” value (KCNQ2/KCNQ3-W265L) was “insensitive”.
`NCC(=O)O` [glycine, reference compound] was tested, and the “effect on KCNQ5 (in words)” value (KCNQ5) was “no effects”.
